Data published in ChEMBL document CHEMBL3352482, “Discovery of potent N-(isoxazol-5-yl)amides as HSP90 inhibitors” (Eur J Med Chem, 2014).
The source made the active and inactive calls. No cut-off for these calls is given here.

What was measured:
[1] = target: T1, Heat shock protein HSP 90-alpha (Homo sapiens, UniProt P07900)
Description: Inhibition of HSP90alpha (unknown origin) after 16 hrs by FP enzymatic assay

[2] = test system: A549; assay: Growth inhibition of human A549 cells after 72 hrs by SRB assay; assay type: functional; details: A549, 72 h
[3] = Growth inhibition of human SMMC7721 cells after 72 hrs by SRB assay; assay type: functional; details: SMMC-7721, 72 h
[4] = Growth inhibition of human HCC827 cells after 72 hrs by SRB assay; assay type: functional; details: HCC827, 72 h
[5] = Growth inhibition of human HCT116 cells after 72 hrs by SRB assay; assay type: functional; details: HCT-116, 72 h
[6] = Growth inhibition of human U87MG cells after 72 hrs by SRB assay; assay type: functional, U-87MG ATCC; details: U-87 MG
[7] = test system: HCC1937; assay: Growth inhibition of human HCC1937 cells after 72 hrs by SRB assay; assay type: functional; details: HCC1937, 72 h
[8] = test system: HeLa; assay: Growth inhibition of human HeLa cells after 72 hrs by SRB assay; assay type: functional
[9] = test system: MDA-MB-231; assay: Growth inhibition of human MDA-MB-231 cells after 72 hrs by SRB assay; assay type: functional; details: MDA-MB-231, 72 h
[10] = target: hERG (KCNH2) (Homo sapiens, UniProt Q12809); assay: Inhibition of human ERG at 1 uM
hERG (KCNH2), sequence (Q12809 whole entry): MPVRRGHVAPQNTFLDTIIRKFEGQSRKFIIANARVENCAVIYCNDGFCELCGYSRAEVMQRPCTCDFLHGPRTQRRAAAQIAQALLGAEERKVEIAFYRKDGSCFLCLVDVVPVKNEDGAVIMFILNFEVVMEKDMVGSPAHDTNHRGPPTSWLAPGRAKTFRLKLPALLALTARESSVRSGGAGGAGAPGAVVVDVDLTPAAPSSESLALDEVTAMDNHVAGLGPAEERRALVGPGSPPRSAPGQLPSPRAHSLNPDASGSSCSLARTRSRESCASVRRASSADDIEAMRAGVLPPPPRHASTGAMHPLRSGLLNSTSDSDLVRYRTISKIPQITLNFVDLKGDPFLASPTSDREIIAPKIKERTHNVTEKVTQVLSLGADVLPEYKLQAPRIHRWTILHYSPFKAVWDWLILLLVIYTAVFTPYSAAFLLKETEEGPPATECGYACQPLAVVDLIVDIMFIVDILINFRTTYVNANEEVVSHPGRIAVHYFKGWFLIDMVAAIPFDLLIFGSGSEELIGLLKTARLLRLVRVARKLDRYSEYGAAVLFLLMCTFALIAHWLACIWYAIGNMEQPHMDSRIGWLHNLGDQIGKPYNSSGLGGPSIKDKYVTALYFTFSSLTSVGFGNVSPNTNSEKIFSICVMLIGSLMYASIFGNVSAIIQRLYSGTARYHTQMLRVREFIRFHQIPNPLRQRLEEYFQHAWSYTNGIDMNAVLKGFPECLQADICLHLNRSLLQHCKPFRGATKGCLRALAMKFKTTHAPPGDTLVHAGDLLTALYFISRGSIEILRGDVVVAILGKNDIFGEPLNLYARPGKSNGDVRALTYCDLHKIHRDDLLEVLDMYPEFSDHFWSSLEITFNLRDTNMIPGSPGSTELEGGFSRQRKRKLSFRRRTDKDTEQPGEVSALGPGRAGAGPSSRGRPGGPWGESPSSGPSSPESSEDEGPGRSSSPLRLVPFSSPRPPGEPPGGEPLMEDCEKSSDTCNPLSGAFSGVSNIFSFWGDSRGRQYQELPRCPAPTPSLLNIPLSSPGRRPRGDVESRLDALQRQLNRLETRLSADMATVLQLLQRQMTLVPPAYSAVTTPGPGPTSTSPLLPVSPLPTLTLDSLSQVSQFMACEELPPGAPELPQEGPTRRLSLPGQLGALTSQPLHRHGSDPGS

[11] = test system: SW-620; assay: Growth inhibition of human SW620 cells after 72 hrs by SRB assay; assay type: functional; details: SW-620, 72 h
[12] = Growth inhibition of human OVCAR8 cells after 72 hrs by SRB assay; assay type: functional; details: OVCAR-8, 72 h
[13] = test system: DU-145; assay: Growth inhibition of human DU145 cells after 72 hrs by SRB assay; assay type: functional; details: DU-145, 72 h
[14] = Growth inhibition of human 786-O cells after 72 hrs by SRB assay; assay type: functional; details: 786-0, 72 h
[15] = test system: NCI-H596; assay: Growth inhibition of human NCI-H596 cells after 72 hrs by SRB assay; assay type: functional; details: NCI-H596, 72 h
[16] = test system: MDA-MB-468; assay: Growth inhibition of human MDA-MB-468 cells after 72 hrs by SRB assay; assay type: functional; details: MDA-MB-468, 72 h
[17] = test system: SK-MEL-28; assay: Growth inhibition of human SK-MEL-28 cells after 72 hrs by SRB assay; assay type: functional; details: SK-MEL-28, 72 h
[18] = test system: SW480; assay: Growth inhibition of human SW480 cells after 72 hrs by SRB assay; assay type: functional; details: SW480, 72 h
[19] = target: T1, Heat shock protein HSP 90-alpha; details: U-87MG ATCC
Description: Inhibition of HSP90alpha in human U87MG cells assessed as decrease in p-Akt level at 50 to 100 nM after 24 hrs by western blotting

[20] = target: T1, Heat shock protein HSP 90-alpha; details: U-87MG ATCC; remark: listed apart in the source
Description: Inhibition of HSP90alpha in human U87MG cells assessed as increase in HSP70 level at 50 to 200 nM after 24 hrs by western blotting

[21] = target: T1, Heat shock protein HSP 90-alpha; details: U-87MG ATCC; remark: listed apart in the source
Description: Inhibition of HSP90alpha in human U87MG cells assessed as increase in HSP27 level at 50 to 200 nM after 24 hrs by western blotting

[22] = target: T1, Heat shock protein HSP 90-alpha; details: U-87MG ATCC; remark: listed apart in the source
Description: Inhibition of HSP90alpha in human U87MG cells assessed as decrease in c-Met level at 50 to 100 nM after 24 hrs by western blotting

[23] = target: T1, Heat shock protein HSP 90-alpha; details: U-87MG ATCC; remark: listed apart in the source
Description: Inhibition of HSP90alpha in human U87MG cells assessed as decrease in p-Erk level at 50 to 100 nM after 24 hrs by western blotting

[24] = Cmax in mouse at 50 mg/kg, po; assay type: ADME, organism-based; design: dose 50 mg/kg, route oral; details: in vivo
[25] = target: T2, CYP1A2 (Homo sapiens, UniProt P05177); assay: Inhibition of CYP1A2 in human liver microsomes at 10 uM after 20 mins
T2 sequence (P05177 whole entry): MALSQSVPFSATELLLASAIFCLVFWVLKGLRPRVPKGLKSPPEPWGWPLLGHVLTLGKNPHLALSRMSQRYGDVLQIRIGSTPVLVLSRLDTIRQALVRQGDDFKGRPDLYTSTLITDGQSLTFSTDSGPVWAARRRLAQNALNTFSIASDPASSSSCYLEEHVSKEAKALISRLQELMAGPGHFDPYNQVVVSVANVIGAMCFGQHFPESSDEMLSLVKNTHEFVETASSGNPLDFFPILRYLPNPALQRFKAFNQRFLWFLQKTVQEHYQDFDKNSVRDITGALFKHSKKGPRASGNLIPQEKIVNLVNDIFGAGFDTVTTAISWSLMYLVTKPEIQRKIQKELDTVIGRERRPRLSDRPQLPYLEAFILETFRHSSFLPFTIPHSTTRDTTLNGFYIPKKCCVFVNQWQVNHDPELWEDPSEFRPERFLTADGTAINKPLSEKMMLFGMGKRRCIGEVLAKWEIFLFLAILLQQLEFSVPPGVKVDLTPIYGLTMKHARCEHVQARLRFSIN

[26] = target: CYP2D6 (Homo sapiens, UniProt P10635); assay: Inhibition of CYP2D6 in human liver microsomes at 10 uM after 20 mins
CYP2D6, sequence (P10635 whole entry): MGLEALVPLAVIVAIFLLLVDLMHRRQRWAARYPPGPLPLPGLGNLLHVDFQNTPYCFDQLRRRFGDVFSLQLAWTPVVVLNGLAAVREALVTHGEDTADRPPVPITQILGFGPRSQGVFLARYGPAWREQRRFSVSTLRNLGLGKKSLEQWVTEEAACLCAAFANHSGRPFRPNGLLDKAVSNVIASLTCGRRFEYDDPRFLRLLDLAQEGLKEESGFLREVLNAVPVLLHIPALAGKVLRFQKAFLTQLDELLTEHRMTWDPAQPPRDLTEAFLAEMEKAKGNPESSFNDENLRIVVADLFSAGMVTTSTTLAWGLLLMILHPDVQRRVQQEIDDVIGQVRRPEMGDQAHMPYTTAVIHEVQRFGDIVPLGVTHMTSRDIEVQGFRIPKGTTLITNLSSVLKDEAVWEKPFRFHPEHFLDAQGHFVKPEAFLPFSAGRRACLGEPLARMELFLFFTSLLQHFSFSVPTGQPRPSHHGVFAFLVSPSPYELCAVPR

[27] = Tmax in mouse at 50 mg/kg, po; assay type: ADME, organism-based; design: dose 50 mg/kg, route oral; details: in vivo
[28] = AUC (0 to t) in mouse at 50 mg/kg, po; assay type: ADME, organism-based; design: dose 50 mg/kg, route oral; details: plasma
[29] = Mean residence time in mouse at 10 mg/kg, iv; assay type: ADME, organism-based; design: dose 10 mg/kg, route intravenous; details: in vivo
[30] = Oral bioavailability in mouse at 50 mg/kg; assay type: ADME, organism-based; details: in vivo
[31] = target: CYP2C9 (Homo sapiens, UniProt P11712); assay: Inhibition of CYP2C9 in human liver microsomes at 10 uM after 20 mins
CYP2C9, sequence (P11712 whole entry): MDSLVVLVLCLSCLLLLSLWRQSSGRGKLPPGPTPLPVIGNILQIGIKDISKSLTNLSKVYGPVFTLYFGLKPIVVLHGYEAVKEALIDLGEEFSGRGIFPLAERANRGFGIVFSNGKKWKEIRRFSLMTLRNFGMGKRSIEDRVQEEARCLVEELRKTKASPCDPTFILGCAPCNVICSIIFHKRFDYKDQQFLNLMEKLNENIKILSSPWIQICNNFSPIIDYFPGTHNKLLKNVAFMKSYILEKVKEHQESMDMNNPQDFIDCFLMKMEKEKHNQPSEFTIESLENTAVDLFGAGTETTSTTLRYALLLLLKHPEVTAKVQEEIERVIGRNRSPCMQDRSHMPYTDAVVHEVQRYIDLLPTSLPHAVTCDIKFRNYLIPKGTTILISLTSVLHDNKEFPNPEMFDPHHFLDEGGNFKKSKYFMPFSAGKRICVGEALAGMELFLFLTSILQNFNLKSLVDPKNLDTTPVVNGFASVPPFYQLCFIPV

[32] = Half life in mouse at 50 mg/kg, po; assay type: ADME, organism-based; design: dose 50 mg/kg, route oral; details: in vivo
[33] = Half life in mouse at 10 mg/kg, iv; assay type: ADME, organism-based; design: dose 10 mg/kg, route intravenous; details: in vivo
[34] = target: Cytochrome P450 3A4 (Homo sapiens, UniProt P08684); assay: Inhibition of CYP3A4 in human liver microsomes at 10 uM after 20 mins; details: microsomes, 20 min, 10 µM
Cytochrome P450 3A4, sequence (P08684 whole entry): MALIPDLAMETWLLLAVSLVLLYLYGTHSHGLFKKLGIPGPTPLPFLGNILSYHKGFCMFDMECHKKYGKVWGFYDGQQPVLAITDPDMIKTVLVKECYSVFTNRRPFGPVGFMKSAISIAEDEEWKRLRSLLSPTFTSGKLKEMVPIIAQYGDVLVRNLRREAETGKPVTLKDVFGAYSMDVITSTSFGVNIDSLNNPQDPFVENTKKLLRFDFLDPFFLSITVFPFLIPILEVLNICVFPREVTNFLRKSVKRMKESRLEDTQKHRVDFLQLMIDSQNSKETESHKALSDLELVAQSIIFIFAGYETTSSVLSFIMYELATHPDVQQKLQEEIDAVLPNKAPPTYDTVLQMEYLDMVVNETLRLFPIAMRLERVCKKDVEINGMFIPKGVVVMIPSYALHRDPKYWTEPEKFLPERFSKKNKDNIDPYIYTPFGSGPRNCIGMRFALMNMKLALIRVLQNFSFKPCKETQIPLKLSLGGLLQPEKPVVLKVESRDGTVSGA

[35] = AUC (0 to t) in mouse at 10 mg/kg, iv; assay type: ADME, organism-based; design: dose 10 mg/kg, route intravenous; details: plasma
[36] = Intrinsic clearance in rat liver microsomes assessed per mg protein; assay type: ADME; details: read-out: CLH
[37] = Intrinsic clearance in human liver microsomes assessed per mg protein; assay type: ADME; details: read-out: CLH
[38] = Mean residence time in mouse at 50 mg/kg, po; assay type: ADME, organism-based; design: dose 50 mg/kg, route oral; details: in vivo

With CC(C)c1cc(-c2noc(NC(=O)C3CC3)c2-c2ccc(CN3CCSCC3)cc2)c(O)cc1O as the compound, how does the IC50 [1] read?
The IC50 was 57 nM.

What about the GI50 [2] of the same compound?
The GI50 was 203 nM.

For COc1ccc(-c2c(-c3cc(Br)c(O)cc3O)noc2NC(C)=O)cc1, which IC50 [1] is on record?
Its IC50 is 44 nM.

And the GI50 [2]?
The GI50 was 3760 nM.

Which IC50 [1] does the source give for COc1ccc(-c2c(-c3cc(C(C)(C)C)c(O)cc3O)noc2NC(C)=O)cc1 here?
Its IC50 is 300 nM.

And the GI50 [2]?
Its GI50 is 6170 nM.

With CCc1cc(-c2noc(NC(C)=O)c2-c2ccc(OC)cc2)c(O)cc1O as the compound, how does the IC50 [1] read?
The IC50 was 42 nM.

And the GI50 [2]?
The GI50 was 2100 nM.

For CCN(CC)Cc1ccc(-c2c(-c3cc(C(C)C)c(O)cc3O)noc2NC(=O)C2CC2)cc1, which IC50 [1] is on record?
Its IC50 is 21 nM.

And the GI50 [2]?
Its GI50 is 126 nM.

Which IC50 [1] does the source give for COc1ccc(-c2c(-c3cc(Cl)c(O)cc3O)noc2NC(=O)C2CC2)cc1 here?
Its IC50 is 53 nM.

And the GI50 [2]?
Its GI50 is 20700 nM.

For CCC(=O)Nc1onc(-c2cc(Cl)c(O)cc2O)c1-c1ccc(OC)cc1, which IC50 [1] is on record?
The IC50 was 37 nM.

And the GI50 [2]?
Its GI50 is 2360 nM.

For CC(C)c1cc(-c2noc(NC(=O)C3CC3)c2-c2ccc(CN(C(C)C)C(C)C)cc2)c(O)cc1O, which IC50 [1] is on record?
The IC50 was 35 nM.

And the GI50 [2]?
Its GI50 is 212 nM.

With CC(C)c1cc(-c2noc(NC(=O)C3CC3)c2-c2ccc(CN3CCN(C)CC3)cc2)c(O)cc1O as the compound, how does the IC50 [1] read?
The IC50 was 27 nM.

What about the GI50 [2] of the same compound?
Its GI50 is 381 nM.

With COc1ccc(-c2c(-c3cc(Cl)c(O)cc3O)noc2NC(=O)CC(C)C)cc1 as the compound, how does the IC50 [1] read?
The IC50 was 35 nM.

What about the GI50 [2] of the same compound?
The GI50 was 5980 nM.

What does the source list for COc1ccc(-c2c(-c3ccc(O)cc3O)noc2NC(C)=O)cc1?
IC50 [1]: 140 nM; GI50 [2]: 13100 nM

Which results are given for CC1CC(C)CN(Cc2ccc(-c3c(-c4cc(C(C)C)c(O)cc4O)noc3NC(=O)C3CC3)cc2)C1 (stereo unspecified)?
GI50 [3]: 45 nM; IC50 [1]: 46 nM; GI50 [4]: 17 nM; GI50 [5]: 25 nM; GI50 [6]: 111 nM; GI50 [7]: 67 nM; GI50 [8]: 39 nM; GI50 [9]: 40 nM; inhibition at 1 µM [10]: 36.5%; GI50 [11]: 35 nM; GI50 [12]: 27 nM; GI50 [13]: 24 nM; GI50 [14]: 51 nM; GI50 [2]: 38 nM; GI50 [15]: 166 nM; GI50 [16]: 67 nM; GI50 [17]: 87 nM; GI50 [18]: 73 nM

Which results are given for CC(C)c1cc(-c2noc(NC(=O)C3CC3)c2-c2ccc(CN(C)CCc3ccccc3)cc2)c(O)cc1O?
IC50 [1]: 140 nM; GI50 [2]: 162 nM

For CC(C)c1cc(-c2noc(NC(=O)C3CC3)c2-c2ccc(CN3CCCCC3)cc2)c(O)cc1O, which IC50 [1] is on record?
The IC50 was 17 nM.

What about the GI50 [2] of the same compound?
Its GI50 is 140 nM.

For CC(C)c1cc(-c2noc(NC(=O)C3CC3)c2-c2ccc(CN3CCC(N4CCOCC4)CC3)cc2)c(O)cc1O, which inhibition [19] is on record?
The inhibition was “Active”.

And the inhibition [20]?
Its inhibition is “Active”.

And the inhibition [21]?
The inhibition was “Active”.

And the inhibition [22]?
Its inhibition is “Active”.

And the inhibition [23]?
The inhibition was “Active”.

With CC(C)c1cc(-c2noc(NC(=O)C3CC3)c2-c2ccc(CN(C)C3CCCCC3)cc2)c(O)cc1O as the compound, how does the IC50 [1] read?
The IC50 was 58 nM.

And the GI50 [2]?
The GI50 was 139 nM.

What does the source list for COc1ccc(-c2c(-c3cc(Cl)c(O)cc3O)noc2NC(=O)C(C)C)cc1?
IC50 [1]: 38 nM; GI50 [2]: 5530 nM

What does the source list for CC(C)c1cc(-c2noc(NC(=O)C3CC3)c2-c2ccc(CN3CCOCC3)cc2)c(O)cc1O?
Cmax [24]: 438 ng/mL; inhibition at 20 min, 10 µM [25]: 22%; GI50 [3]: 46 nM; IC50 [1]: 27 nM; inhibition at 20 min, 10 µM [26]: 79%; GI50 [4]: 15 nM; GI50 [5]: 35 nM; GI50 [6]: 115 nM; GI50 [7]: 114 nM; inhibition [19]: Active; inhibition [20]: Active; Tmax [27]: 4.98 min; AUC(0-t) [28]: 496 ng·h/mL; GI50 [8]: 46 nM; inhibition [21]: Active; MRT [29]: 1.86 h; GI50 [9]: 54 nM; inhibition at 1 µM [10]: 10.5%; bioavailability [30]: 16.1%; GI50 [11]: 46 nM; inhibition [22]: Active; GI50 [12]: 19 nM; GI50 [13]: 19 nM; inhibition at 20 min, 10 µM [31]: 66%; half-life [32]: 1.06 h; inhibition [23]: Active; half-life [33]: 1.62 h; GI50 [14]: 24 nM; INH [34]: Not Active; GI50 [2]: 41 nM; GI50 [15]: 166 nM; GI50 [16]: 42 nM; AUC(0-t) [35]: 615 ng·h/mL; microsomal CLint [36]: 108 µL/min/mg; microsomal CLint [37]: 112 µL/min/mg; GI50 [17]: 90 nM; GI50 [18]: 21 nM; MRT [38]: 1.54 h
